Laboratory results published in patent US20090209620A1, “Direct Reversal Of The Suppressive Function Of CD4+Regulatory T Cells Via Toll-Like Receptor 8 Signaling” (priority 2005, published 2009).

Test system: CD4+ Treg cells (Treg102, Treg164)
Experiment: Proliferation assay with dendritic cells: Treg suppression of naive CD4+ T cell proliferation ([3H]thymidine)
Format: cell-based, human
Settings: with DCs and soluble anti-CD3; CpG-A 3 ug/ml
Excerpt: Establishing Treg cell lines and purifying natural CD4^+ CD25^+ Treg cells CD4^+ Treg clones were established from CD4^+ tumor-infiltrating lymphocytes (TIL102 and TIL164) and maintained in RPMI 1640 medium containing 10% human AB serum and recombinant IL-2 (300 IU/ml) using methods well known in the art (See, e.g., H. Y. Wang et al., Immunity 20, 107-118 (2004)). Treg clones derived from TIL102 or TIL164 cells were pooled and designated Treg102 or Treg164. Naturally occurring CD4^+ CD25^+ Treg cells were obtained by sorting CD4^+ T cell populations from fresh PBMCs after staining with anti-CD4 and anti-CD25 antibodies. To obtain optimal expansion, the OKT3 expansion method was performed using methods well known in the art (See, e.g., H. Y. Wang et al., Immunity 20, 107-118 (2004)). T cell clones were maintained at a low IL-2 concentration (300 IU/ml). Melanoma cell lines and EBV-transformed B-cell lines used in this study were cultured in RPMI 1640 medium containing 10% FCS. Human embryonic kidney (HEK) 293 and Epstein-Barr virus (EBV)-transformed B cell lines were maintained in RPMI 1640 with 10% fetal calf serum (FCS).
A. Proliferation assay with Dendritic Cells (DCs): Näive CD4^+ T cells were purified from PBMCs using microbeads (Miltenvi Biotec). DCs were generated from PBMC-derived monocytes in the presence of IL-4 (500 ng/ml) and GM-CSF (800 ng/ml) for 7 days. 1×105 näive CD4^+ T cells were cultured with regulatory T cells at different ratios (1: 0.2, 1:0.1 and 1:0.05) in 200 ul of medium containing 2×104 of DCs and anti-CD3 antibody (100 ng/ml) plus one of the following TLR ligands or cytokines: CpG-A (3 ug/ml), CpG-B (3 ug/ml), LPS (100 ng/ml), TNF.-α (20 ng/ml), IFN-α (100 ng/ml), or IL-6 (100 ng/ml). After 56 h of culture, [3H]thymidine was added at a final concentration of 1 uCi/well, followed by an additional 16 h. of culture. The incorporation of [^3H]thymidine was measured with a liquid scintillation counter, using methods well known in the art (See, e.g., M. K. Levings et al., J. Exp. Med. 196, 1335-46 (2002)). All experiments were performed in triplicate.
Two CD4^+ Treg cell lines, designated Treg102 and Treg164, were generated with a panel of Treg cell clones derived from TIL102 and TIL164 cells. […] A functional proliferation assay was employed to examine whether CpG (a TLR9 ligand), LPS (a TLR4 ligand) or the cytokines IL-6 or IFN-α could regulate the suppressive activity of antigen specific human CD4^+ Treg cells in the presence of DCs. […]

G* GGGGACGATCGTCG* G*G*G*G*G [CpG-A]
proliferation of naive CD4+ T cells restored, % of normal levels: 50-80%
